The values below come from ChEMBL document CHEMBL5291721, “A preclinical secondary pharmacology resource illuminates target-adverse drug reaction associations of marketed drugs” (Nat Commun, 2023).

Test [1] addresses Gamma-aminobutyric acid receptor subunit alpha-1/alpha-2/beta-2/gamma-2 (Homo sapiens, UniProt P14867+P18507+P47869+P47870). It counts as protein-complex assay.
For test [2], the target named is Vasopressin V1a receptor (Homo sapiens, UniProt P37288).
Test [3] has as its target T1, Amine oxidase [flavin-containing] A (Homo sapiens, UniProt P21397).
T1 sequence (P21397 whole entry): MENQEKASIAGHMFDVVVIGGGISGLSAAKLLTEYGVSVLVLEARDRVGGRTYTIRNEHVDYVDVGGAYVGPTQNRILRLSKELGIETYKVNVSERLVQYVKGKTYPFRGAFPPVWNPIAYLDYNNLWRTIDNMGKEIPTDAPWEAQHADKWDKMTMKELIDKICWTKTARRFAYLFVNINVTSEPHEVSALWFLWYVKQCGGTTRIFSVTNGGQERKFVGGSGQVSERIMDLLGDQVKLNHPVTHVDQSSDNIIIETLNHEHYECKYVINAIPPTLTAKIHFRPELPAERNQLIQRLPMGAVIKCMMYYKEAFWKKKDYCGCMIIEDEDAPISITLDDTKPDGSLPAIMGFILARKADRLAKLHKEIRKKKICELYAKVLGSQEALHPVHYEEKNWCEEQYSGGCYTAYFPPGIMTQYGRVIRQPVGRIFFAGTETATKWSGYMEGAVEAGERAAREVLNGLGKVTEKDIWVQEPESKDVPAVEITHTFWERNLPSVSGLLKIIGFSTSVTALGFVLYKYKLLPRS
Type of test: functional.

Test [4] deals with T2, Thromboxane A2 receptor (Homo sapiens, UniProt P21731).
T2 sequence (P21731 whole entry): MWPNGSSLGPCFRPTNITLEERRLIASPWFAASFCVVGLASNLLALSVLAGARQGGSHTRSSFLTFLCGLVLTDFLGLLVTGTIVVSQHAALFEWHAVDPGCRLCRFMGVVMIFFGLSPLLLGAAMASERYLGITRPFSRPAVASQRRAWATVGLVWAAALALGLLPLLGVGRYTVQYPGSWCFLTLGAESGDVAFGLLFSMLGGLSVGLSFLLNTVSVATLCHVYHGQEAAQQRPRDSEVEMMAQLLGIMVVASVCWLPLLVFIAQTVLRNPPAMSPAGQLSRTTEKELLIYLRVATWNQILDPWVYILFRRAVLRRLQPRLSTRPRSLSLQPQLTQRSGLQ

Test [5] deals with T3, Gastrin/cholecystokinin type B receptor (Homo sapiens, UniProt P32239).
T3 sequence (P32239 whole entry): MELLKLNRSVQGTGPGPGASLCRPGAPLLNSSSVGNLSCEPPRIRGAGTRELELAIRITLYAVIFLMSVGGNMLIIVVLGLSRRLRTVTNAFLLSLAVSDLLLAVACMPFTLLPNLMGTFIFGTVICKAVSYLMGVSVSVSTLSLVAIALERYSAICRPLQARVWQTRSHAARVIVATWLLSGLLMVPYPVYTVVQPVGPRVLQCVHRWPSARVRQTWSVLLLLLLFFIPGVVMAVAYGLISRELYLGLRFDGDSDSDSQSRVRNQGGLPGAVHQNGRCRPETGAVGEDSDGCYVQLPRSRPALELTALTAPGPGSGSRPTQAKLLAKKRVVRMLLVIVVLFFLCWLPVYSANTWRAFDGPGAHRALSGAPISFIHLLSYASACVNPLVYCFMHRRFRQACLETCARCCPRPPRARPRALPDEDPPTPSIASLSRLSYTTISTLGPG

For test [6], the target named is Gamma-aminobutyric acid receptor subunit alpha-1 (Rattus norvegicus, UniProt P62813). Type of test: functional.
In test [7] the target is T4, Muscarinic acetylcholine receptor M2 (Homo sapiens, UniProt P08172).
T4 sequence (P08172 whole entry): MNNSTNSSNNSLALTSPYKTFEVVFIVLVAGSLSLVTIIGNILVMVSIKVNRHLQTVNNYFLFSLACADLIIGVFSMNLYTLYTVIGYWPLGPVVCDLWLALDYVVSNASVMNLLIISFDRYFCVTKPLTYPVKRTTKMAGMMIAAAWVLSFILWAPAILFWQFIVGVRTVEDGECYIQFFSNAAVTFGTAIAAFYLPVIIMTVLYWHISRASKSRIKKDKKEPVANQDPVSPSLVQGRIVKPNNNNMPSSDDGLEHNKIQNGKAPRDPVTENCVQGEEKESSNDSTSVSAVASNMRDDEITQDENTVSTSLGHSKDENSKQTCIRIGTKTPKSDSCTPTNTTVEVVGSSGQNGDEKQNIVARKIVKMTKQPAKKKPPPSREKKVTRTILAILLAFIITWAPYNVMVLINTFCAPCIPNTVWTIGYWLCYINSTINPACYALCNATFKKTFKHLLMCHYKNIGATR
Type of test: functional, cell-based.

Test [8] addresses T5, Neuropeptide Y receptor type 1 (Homo sapiens, UniProt P25929).
T5 sequence (P25929 whole entry): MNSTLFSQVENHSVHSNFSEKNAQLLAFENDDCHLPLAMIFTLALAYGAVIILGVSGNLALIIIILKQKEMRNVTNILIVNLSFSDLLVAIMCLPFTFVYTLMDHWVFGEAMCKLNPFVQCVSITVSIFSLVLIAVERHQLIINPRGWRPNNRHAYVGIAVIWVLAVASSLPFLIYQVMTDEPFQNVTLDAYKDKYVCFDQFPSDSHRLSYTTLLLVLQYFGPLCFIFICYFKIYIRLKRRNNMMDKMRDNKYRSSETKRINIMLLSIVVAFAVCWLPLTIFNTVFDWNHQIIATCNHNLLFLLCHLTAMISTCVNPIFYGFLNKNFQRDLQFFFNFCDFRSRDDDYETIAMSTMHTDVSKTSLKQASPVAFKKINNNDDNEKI

For test [9], the target named is Motilin receptor (Homo sapiens, UniProt O43193).
Test [10] has as its target 5-hydroxytryptamine receptor 2B (Homo sapiens, UniProt P41595). Type of test: functional, cell-based.
Test [11] deals with Beta-2 adrenergic receptor (Homo sapiens, UniProt P07550).

By AC50 is commonly meant the midpoint of the concentration-response curve, whichever way the signal moves. The low end stands for activity at low concentration, the high end for activity only at high concentration.
Further: assay procedure not described here.

5-hydroxytryptamine receptor 2B, sequence (P41595 whole entry): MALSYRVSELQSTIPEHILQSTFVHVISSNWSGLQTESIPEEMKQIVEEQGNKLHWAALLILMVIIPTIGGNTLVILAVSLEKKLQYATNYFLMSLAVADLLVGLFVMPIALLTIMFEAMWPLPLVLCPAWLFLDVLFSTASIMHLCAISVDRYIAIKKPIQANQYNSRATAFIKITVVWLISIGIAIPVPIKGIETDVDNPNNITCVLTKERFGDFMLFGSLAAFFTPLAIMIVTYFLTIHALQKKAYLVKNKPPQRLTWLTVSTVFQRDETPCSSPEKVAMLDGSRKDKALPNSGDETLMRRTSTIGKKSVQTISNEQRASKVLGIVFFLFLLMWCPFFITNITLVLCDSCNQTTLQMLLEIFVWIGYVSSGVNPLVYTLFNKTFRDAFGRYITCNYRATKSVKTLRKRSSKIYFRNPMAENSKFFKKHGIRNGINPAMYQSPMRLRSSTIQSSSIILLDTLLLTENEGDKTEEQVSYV
Gamma-aminobutyric acid receptor subunit alpha-1, sequence (P62813 whole entry): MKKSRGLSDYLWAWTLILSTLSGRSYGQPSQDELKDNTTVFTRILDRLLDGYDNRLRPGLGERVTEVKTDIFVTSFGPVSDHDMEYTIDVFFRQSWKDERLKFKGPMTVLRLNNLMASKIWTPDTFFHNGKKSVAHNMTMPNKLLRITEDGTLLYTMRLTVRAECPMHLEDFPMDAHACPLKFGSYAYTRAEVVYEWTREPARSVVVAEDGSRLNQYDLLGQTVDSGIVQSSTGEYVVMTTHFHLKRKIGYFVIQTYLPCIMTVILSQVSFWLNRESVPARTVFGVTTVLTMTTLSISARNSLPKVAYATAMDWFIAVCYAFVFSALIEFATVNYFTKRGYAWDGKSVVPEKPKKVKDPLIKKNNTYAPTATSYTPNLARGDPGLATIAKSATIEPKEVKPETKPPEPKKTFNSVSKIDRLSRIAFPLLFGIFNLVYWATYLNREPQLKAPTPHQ
Vasopressin V1a receptor, sequence (P37288 whole entry): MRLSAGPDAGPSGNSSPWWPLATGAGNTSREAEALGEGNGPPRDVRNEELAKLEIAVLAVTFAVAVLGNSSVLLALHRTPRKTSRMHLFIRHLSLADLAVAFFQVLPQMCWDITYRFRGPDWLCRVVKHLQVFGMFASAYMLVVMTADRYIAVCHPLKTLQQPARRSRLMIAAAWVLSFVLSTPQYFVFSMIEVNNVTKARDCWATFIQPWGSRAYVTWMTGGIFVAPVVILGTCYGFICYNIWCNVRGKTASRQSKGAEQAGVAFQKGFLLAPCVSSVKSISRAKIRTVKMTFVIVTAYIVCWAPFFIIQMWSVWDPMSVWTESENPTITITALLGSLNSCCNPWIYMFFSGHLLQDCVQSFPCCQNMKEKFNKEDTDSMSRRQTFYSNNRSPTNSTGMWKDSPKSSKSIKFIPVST
Motilin receptor, sequence (O43193 whole entry): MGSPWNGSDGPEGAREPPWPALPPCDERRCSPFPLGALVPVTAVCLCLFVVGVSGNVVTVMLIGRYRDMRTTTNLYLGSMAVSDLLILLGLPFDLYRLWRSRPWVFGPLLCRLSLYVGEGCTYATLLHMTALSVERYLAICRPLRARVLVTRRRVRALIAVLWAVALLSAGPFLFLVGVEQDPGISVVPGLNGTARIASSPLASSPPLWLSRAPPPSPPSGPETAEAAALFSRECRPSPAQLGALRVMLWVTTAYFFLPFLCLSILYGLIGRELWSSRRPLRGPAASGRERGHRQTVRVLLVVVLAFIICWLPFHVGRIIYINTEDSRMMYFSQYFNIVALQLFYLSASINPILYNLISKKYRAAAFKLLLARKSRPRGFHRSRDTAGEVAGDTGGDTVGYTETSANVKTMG
Gamma-aminobutyric acid receptor subunit alpha-1/alpha-2/beta-2/gamma-2, sequence (P14867 whole entry): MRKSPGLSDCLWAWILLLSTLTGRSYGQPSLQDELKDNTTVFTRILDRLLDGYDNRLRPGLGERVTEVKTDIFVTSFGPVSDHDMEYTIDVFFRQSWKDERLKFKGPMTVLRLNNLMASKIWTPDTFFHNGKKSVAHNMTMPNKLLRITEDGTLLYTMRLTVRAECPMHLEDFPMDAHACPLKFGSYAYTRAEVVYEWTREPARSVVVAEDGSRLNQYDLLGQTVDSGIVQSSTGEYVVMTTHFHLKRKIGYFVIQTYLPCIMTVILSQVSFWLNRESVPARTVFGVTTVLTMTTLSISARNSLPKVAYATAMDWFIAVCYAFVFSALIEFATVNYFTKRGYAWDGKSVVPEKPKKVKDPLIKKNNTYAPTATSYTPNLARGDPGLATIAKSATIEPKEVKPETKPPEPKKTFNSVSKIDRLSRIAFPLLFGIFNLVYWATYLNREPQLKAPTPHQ
Gamma-aminobutyric acid receptor subunit alpha-1/alpha-2/beta-2/gamma-2, sequence (P47870 whole entry): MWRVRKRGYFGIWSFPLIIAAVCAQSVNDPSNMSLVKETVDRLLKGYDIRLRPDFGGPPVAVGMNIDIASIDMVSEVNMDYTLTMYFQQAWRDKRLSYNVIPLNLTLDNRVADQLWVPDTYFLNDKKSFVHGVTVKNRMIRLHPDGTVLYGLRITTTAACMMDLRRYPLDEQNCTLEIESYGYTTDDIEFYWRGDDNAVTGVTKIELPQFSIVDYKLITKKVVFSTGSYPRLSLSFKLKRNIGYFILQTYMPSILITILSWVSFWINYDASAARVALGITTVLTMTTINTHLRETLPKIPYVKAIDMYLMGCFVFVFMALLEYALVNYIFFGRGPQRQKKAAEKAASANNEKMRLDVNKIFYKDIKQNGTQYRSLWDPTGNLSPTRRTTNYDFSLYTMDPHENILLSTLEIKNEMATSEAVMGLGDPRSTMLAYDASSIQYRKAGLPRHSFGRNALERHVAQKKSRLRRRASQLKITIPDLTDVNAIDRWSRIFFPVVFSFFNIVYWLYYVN
Gamma-aminobutyric acid receptor subunit alpha-1/alpha-2/beta-2/gamma-2, sequence (P18507 whole entry): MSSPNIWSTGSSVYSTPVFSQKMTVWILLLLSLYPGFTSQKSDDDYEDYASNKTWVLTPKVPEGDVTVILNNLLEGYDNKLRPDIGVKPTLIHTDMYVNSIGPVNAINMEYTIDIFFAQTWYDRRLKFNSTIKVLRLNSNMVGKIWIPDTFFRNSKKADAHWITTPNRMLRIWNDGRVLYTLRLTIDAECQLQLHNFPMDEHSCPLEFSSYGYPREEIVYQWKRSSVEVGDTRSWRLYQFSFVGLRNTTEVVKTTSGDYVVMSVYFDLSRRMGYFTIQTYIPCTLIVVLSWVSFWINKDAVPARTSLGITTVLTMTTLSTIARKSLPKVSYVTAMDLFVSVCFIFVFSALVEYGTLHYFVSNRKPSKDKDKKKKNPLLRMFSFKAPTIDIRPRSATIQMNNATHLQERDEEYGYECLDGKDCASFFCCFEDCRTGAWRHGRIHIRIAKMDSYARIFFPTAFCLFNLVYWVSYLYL
Gamma-aminobutyric acid receptor subunit alpha-1/alpha-2/beta-2/gamma-2, sequence (P47869 whole entry): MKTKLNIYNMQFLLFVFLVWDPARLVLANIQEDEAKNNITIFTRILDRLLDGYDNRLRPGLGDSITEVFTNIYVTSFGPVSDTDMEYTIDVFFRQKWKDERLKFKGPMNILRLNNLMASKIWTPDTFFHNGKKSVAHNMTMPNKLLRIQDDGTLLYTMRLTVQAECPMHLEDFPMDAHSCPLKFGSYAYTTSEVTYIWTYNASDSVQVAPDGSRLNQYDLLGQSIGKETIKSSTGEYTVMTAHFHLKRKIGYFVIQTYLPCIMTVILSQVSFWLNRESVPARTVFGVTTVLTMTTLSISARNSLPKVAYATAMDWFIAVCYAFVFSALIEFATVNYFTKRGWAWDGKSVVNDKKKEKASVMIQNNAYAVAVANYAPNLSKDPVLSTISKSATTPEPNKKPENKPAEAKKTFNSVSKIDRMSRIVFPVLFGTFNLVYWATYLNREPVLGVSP

With `CN(C)c1ccc(C(=C2C=CC(=[N+](C)C)C=C2)c2ccc(N(C)C)cc2)cc1` [GENTIAN VIOLET], the AC50 in [1] is above 3 µM.
HYDROXOCOBALAMIN: the AC50 in test [2], in test [3], in test [4], in test [5], in test [6] and in [7] was above 30 µM each time. In addition, the AC50 in [8], in test [9], in test [10] and in [11] was above 30 µM in each case.
